# PubChem BioAssay AID328 (DTP/NCI, 2004)
# “And” between values parts separate entries of the source, which are not always exact repeats. Identical values can stand only once. Inconclusive results and toxic doses are left out. Starred links: 1 amine or outer side, 2 acyl side, 3 side chain; linkers in the order of their positions; H or OH if unused. Positions of bridges follow the written chain, without caps; N, C: chain ends. Non-standard residues stand in square brackets, D forms with d. Residues, ends and D or L forms follow the SMILES beside them. Chains are numbered I, II in the order given. Actinocin(1to9) = Cc1c2oc3c(C)ccc(C(=O)[*:2])c3nc-2c(C(=O)[*:1])c(N)c1=O; NMeV = CN[CH](C(=O)O)C(C)C; Aze = O=C(O)[CH]1CCN1; Sar = CNCC(=O)O
# Test system: BDF1 mice, P388 leukemia ip, median survival T/C
# Experiment: NCI In Vivo Anticancer Drug Screen. Data for tumor model P388 Leukemia (intraperitoneal) in B6D2F1 (BDF1) mice
# Conditions: endpoint: median survival time, higher = longer survival
# Method in brief: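 Mice carrying the transplantable tumour receive compound or vehicle. Survival is followed in each arm, and the treated measure is divided by the vehicle measure.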
# [1] = dose: 100.0 mg/kg/injection, schedule: Q01DX009 (ip), vehicle: saline with Tween-80
# [2] = dose: 100.0 mg/kg/injection, schedule: Q04DX003 (ip), vehicle: saline with Tween-80
# [3] = dose: 200.0 mg/kg/injection, schedule: Q01DX009 (ip), vehicle: saline with Tween-80
# [4] = dose: 200.0 mg/kg/injection, schedule: Q04DX003 (ip), vehicle: saline with Tween-80
# [5] = dose: 400.0 mg/kg/injection, schedule: Q04DX003 (ip), vehicle: saline with Tween-80
smiles,measurement,setting,value
"Cc1c2oc3c(C)ccc(C(=O)NC4C(=O)NC(C(C)C)C(=O)N5CCCC5C(=O)N(C)CC(=O)N(C)C(C(C)C)C(=O)OC4C)c3nc-2c(C(=O)NC2C(=O)NC(C(C)C)C(=O)N3CCC3C(=O)N(C)CC(=O)N(C)C(C(C)C)C(=O)OC2C)c(N)c1=O (stereo not given) (I: TV[Aze][Sar][NMeV] / II: TVP[Sar][NMeV]; ester I:1-I:C, II:1-II:C; linker I:N-II:N via Actinocin(1to9); configuration not given here)",T/C,"dose: 0.26 mg/kg/injection, schedule: Q04DX003 (ip), vehicle: saline",201 % of control
same,T/C,"dose: 0.3 mg/kg/injection, schedule: Q04DX003 (ip), vehicle: saline + alcohol",265 % of control and 168 % of control
same,T/C,"dose: 0.4 mg/kg/injection, schedule: Q04DX003 (ip), vehicle: saline",250 % of control
same,T/C,"dose: 0.45 mg/kg/injection, schedule: Q04DX003 (ip), vehicle: saline + alcohol",256 % of control and 223 % of control
same,T/C,"dose: 0.6 mg/kg/injection, schedule: Q04DX003 (ip), vehicle: saline + alcohol",230 % of control and 159 % of control
same,T/C,"dose: 0.6 mg/kg/injection, schedule: Q04DX003 (ip), vehicle: saline",373 % of control
same,T/C,"dose: 0.9 mg/kg/injection, schedule: Q04DX003 (ip), vehicle: saline + alcohol",123 % of control and 219 % of control
same,T/C,"dose: 0.9 mg/kg/injection, schedule: Q04DX003 (ip), vehicle: saline",551 % of control
same,T/C,"dose: 1.2 mg/kg/injection, schedule: Q04DX003 (ip), vehicle: saline + alcohol",97 % of control and 117 % of control
same,T/C,"dose: 1.3 mg/kg/injection, schedule: Q04DX003 (ip), vehicle: saline",551 % of control
same,T/C,"dose: 12.5 micrograms/kg/injection, schedule: Q01DX009 (ip), vehicle: saline + alcohol",197 % of control
same,T/C,"dose: 25.0 micrograms/kg/injection, schedule: Q01DX009 (ip), vehicle: saline + alcohol",218 % of control
same,T/C,"dose: 50.0 micrograms/kg/injection, schedule: Q01DX009 (ip), vehicle: saline + alcohol",263 % of control
same,T/C,"dose: 75.0 micrograms/kg/injection, schedule: Q04DX003 (ip), vehicle: saline + alcohol",205 % of control
same,T/C,"dose: 100.0 micrograms/kg/injection, schedule: Q01DX009 (ip), vehicle: saline + alcohol",270 % of control
same,T/C,"dose: 112.5 micrograms/kg/injection, schedule: Q01DX009 (ip), vehicle: saline + alcohol",265 % of control
same,T/C,"dose: 150.0 micrograms/kg/injection, schedule: Q01DX009 (ip), vehicle: saline + alcohol",212 % of control
same,T/C,"dose: 150.0 micrograms/kg/injection, schedule: Q04DX003 (ip), vehicle: saline + alcohol",226 % of control and 153 % of control
same,T/C,"dose: 200.0 micrograms/kg/injection, schedule: Q01DX009 (ip), vehicle: saline + alcohol",622 % of control
same,T/C,"dose: 225.0 micrograms/kg/injection, schedule: Q01DX009 (ip), vehicle: saline + alcohol",105 % of control
same,T/C,"dose: 300.0 micrograms/kg/injection, schedule: Q01DX009 (ip), vehicle: saline + alcohol",95 % of control
same,T/C,"dose: 300.0 micrograms/kg/injection, schedule: Q04DX003 (ip), vehicle: saline + alcohol",250 % of control and 197 % of control
same,T/C,"dose: 450.0 micrograms/kg/injection, schedule: Q01DX009 (ip), vehicle: saline + alcohol",94 % of control
same,T/C,"dose: 600.0 micrograms/kg/injection, schedule: Q04DX003 (ip), vehicle: saline + alcohol",385 % of control and 388 % of control
same,T/C,"dose: 1200.0 micrograms/kg/injection, schedule: Q04DX003 (ip), vehicle: saline + alcohol",104 % of control
CN=C(N)c1ccc(NC(=O)c2ccc(C(=O)Nc3ccc(C(N)=NC)cc3)c(N)c2)cc1,T/C,"dose: 2.0 mg/kg/injection, schedule: Q04DX003 (ip), vehicle: Klucel (hydroxypropylcellulose) (HPC)",107 % of control
same,T/C,"dose: 2.6 mg/kg/injection, schedule: Q01DX009 (ip), vehicle: Klucel (hydroxypropylcellulose) (HPC)",190 % of control
same,T/C,"dose: 3.0 mg/kg/injection, schedule: Q04DX003 (ip), vehicle: Klucel (hydroxypropylcellulose) (HPC)",115 % of control
same,T/C,"dose: 4.0 mg/kg/injection, schedule: Q01DX009 (ip), vehicle: Klucel (hydroxypropylcellulose) (HPC)",263 % of control
same,T/C,"dose: 6.0 mg/kg/injection, schedule: Q01DX009 (ip), vehicle: Klucel (hydroxypropylcellulose) (HPC)",272 % of control
same,T/C,"dose: 6.25 mg/kg/injection, schedule: Q01DX009 (ip), vehicle: Klucel (hydroxypropylcellulose) (HPC)",150 % of control
same,T/C,"dose: 8.0 mg/kg/injection, schedule: Q04DX003 (ip), vehicle: Klucel (hydroxypropylcellulose) (HPC)",150 % of control and 175 % of control
same,T/C,"dose: 12.0 mg/kg/injection, schedule: Q04DX003 (ip), vehicle: Klucel (hydroxypropylcellulose) (HPC)",170 % of control and 190 % of control
same,T/C,"dose: 12.5 mg/kg/injection, schedule: Q04DX003 (ip), vehicle: Klucel (hydroxypropylcellulose) (HPC)",169 % of control
same,T/C,"dose: 18.0 mg/kg/injection, schedule: Q04DX003 (ip), vehicle: Klucel (hydroxypropylcellulose) (HPC)",150 % of control and 209 % of control
Cc1ccc(NC(=S)NNC(=S)NNc2ccccc2)cc1C,T/C,"dose: 100.0 mg/kg/injection, schedule: Q01DX009 (ip), vehicle: Klucel (hydroxypropylcellulose) (HPC)",115 % of control
same,T/C,"dose: 200.0 mg/kg/injection, schedule: Q01DX009 (ip), vehicle: Klucel (hydroxypropylcellulose) (HPC)",120 % of control
Nc1ccc(OCCCCNC(=O)c2ccc(S(=O)(=O)F)cc2)c(Cl)c1,T/C,"dose: 0.78 mg/kg/injection, schedule: Q01DX009 (ip), vehicle: saline with Tween-80",94 % of control
same,T/C,"dose: 1.56 mg/kg/injection, schedule: Q01DX009 (ip), vehicle: saline with Tween-80",111 % of control
same,T/C,"dose: 3.12 mg/kg/injection, schedule: Q01DX009 (ip), vehicle: saline with Tween-80",102 % of control
same,T/C,"dose: 6.25 mg/kg/injection, schedule: Q01DX009 (ip), vehicle: saline with Tween-80",100 % of control
same,T/C,"dose: 12.5 mg/kg/injection, schedule: Q01DX009 (ip), vehicle: saline with Tween-80",102 % of control
same,T/C,"dose: 25.0 mg/kg/injection, schedule: Q01DX009 (ip), vehicle: saline with Tween-80",86 % of control and 100 % of control and 115 % of control
same,T/C,"dose: 50.0 mg/kg/injection, schedule: Q01DX009 (ip), vehicle: saline with Tween-80",110 % of control
same,T/C,[1],117 % of control
same,T/C,[2],103 % of control
same,T/C,[3],110 % of control
same,T/C,[4],99 % of control
O=C1CCCC1C(=O)Nc1cccc2cccnc12 (stereo not given),T/C,[2],117 % of control
same,T/C,[4],95 % of control
same,T/C,[5],100 % of control
CN(C)c1ccc(-c2nc3ccccn3c2N)cc1,T/C,"dose: 1.56 mg/kg/injection, schedule: Q01DX009 (ip), vehicle: saline",105 % of control
same,T/C,"dose: 3.13 mg/kg/injection, schedule: Q01DX009 (ip), vehicle: saline",96 % of control
same,T/C,"dose: 6.25 mg/kg/injection, schedule: Q01DX009 (ip), vehicle: saline",113 % of control
COC1=C(C2(O)C(=O)N(C)c3ccccc32)C(=O)C(OC)=C(C2(O)C(=O)N(C)c3ccccc32)C1=O (stereo not given),T/C,"dose: 100.0 mg/kg/injection, schedule: Q01DX001 (ip), vehicle: saline with Tween-80",91 % of control
same,T/C,"dose: 200.0 mg/kg/injection, schedule: Q01DX001 (ip), vehicle: saline with Tween-80",89 % of control
same,T/C,"dose: 400.0 mg/kg/injection, schedule: Q01DX001 (ip), vehicle: saline with Tween-80",90 % of control
Cc1ccc(NC(=O)OCCSCCOC(=O)Nc2ccc(C)cc2)cc1,T/C,"dose: 25.0 mg/kg/injection, schedule: Q04DX003 (ip), vehicle: other",95 % of control
same,T/C,"dose: 50.0 mg/kg/injection, schedule: Q04DX003 (ip), vehicle: other",90 % of control
same,T/C,"dose: 100.0 mg/kg/injection, schedule: Q04DX003 (ip), vehicle: other",90 % of control
same,T/C,"dose: 200.0 mg/kg/injection, schedule: Q04DX003 (ip), vehicle: other",90 % of control
same,T/C,"dose: 400.0 mg/kg/injection, schedule: Q04DX003 (ip), vehicle: other",100 % of control
Nc1c(Cl)cc(S(N)(=O)=O)cc1Cl,T/C,[1],86 % of control
same,T/C,[2],104 % of control
same,T/C,[3],90 % of control
same,T/C,[4],104 % of control
same,T/C,[5],100 % of control
Nc1ccc(OCCNS(=O)(=O)c2cccc(S(=O)(=O)F)c2)c(Cl)c1,T/C,"dose: 25.0 mg/kg/injection, schedule: Q01DX009 (ip), vehicle: saline",107 % of control
same,T/C,"dose: 50.0 mg/kg/injection, schedule: Q01DX009 (ip), vehicle: saline",104 % of control
same,T/C,"dose: 50.0 mg/kg/injection, schedule: Q04DX003 (ip), vehicle: saline",103 % of control
same,T/C,"dose: 100.0 mg/kg/injection, schedule: Q01DX009 (ip), vehicle: saline",114 % of control
same,T/C,"dose: 100.0 mg/kg/injection, schedule: Q04DX003 (ip), vehicle: saline",103 % of control
same,T/C,"dose: 200.0 mg/kg/injection, schedule: Q01DX009 (ip), vehicle: saline",105 % of control
same,T/C,"dose: 200.0 mg/kg/injection, schedule: Q04DX003 (ip), vehicle: saline",103 % of control
same,T/C,"dose: 400.0 mg/kg/injection, schedule: Q04DX003 (ip), vehicle: saline",100 % of control
